Here are results for 13 compounds from US8410112B2, “Compounds useful as inhibitors of ATR kinase” (Vertex Pharmaceuticals Incorporated, priority 2008, dated 2013).

A value given as a limit tells only on which side of the number the result lay.

The target in the assay is T1, full-length ATR (Homo sapiens, UniProt Q13535).
T1 construct: in the presence of 5 nM full-length ATR
T1 sequence (Q13535 whole entry): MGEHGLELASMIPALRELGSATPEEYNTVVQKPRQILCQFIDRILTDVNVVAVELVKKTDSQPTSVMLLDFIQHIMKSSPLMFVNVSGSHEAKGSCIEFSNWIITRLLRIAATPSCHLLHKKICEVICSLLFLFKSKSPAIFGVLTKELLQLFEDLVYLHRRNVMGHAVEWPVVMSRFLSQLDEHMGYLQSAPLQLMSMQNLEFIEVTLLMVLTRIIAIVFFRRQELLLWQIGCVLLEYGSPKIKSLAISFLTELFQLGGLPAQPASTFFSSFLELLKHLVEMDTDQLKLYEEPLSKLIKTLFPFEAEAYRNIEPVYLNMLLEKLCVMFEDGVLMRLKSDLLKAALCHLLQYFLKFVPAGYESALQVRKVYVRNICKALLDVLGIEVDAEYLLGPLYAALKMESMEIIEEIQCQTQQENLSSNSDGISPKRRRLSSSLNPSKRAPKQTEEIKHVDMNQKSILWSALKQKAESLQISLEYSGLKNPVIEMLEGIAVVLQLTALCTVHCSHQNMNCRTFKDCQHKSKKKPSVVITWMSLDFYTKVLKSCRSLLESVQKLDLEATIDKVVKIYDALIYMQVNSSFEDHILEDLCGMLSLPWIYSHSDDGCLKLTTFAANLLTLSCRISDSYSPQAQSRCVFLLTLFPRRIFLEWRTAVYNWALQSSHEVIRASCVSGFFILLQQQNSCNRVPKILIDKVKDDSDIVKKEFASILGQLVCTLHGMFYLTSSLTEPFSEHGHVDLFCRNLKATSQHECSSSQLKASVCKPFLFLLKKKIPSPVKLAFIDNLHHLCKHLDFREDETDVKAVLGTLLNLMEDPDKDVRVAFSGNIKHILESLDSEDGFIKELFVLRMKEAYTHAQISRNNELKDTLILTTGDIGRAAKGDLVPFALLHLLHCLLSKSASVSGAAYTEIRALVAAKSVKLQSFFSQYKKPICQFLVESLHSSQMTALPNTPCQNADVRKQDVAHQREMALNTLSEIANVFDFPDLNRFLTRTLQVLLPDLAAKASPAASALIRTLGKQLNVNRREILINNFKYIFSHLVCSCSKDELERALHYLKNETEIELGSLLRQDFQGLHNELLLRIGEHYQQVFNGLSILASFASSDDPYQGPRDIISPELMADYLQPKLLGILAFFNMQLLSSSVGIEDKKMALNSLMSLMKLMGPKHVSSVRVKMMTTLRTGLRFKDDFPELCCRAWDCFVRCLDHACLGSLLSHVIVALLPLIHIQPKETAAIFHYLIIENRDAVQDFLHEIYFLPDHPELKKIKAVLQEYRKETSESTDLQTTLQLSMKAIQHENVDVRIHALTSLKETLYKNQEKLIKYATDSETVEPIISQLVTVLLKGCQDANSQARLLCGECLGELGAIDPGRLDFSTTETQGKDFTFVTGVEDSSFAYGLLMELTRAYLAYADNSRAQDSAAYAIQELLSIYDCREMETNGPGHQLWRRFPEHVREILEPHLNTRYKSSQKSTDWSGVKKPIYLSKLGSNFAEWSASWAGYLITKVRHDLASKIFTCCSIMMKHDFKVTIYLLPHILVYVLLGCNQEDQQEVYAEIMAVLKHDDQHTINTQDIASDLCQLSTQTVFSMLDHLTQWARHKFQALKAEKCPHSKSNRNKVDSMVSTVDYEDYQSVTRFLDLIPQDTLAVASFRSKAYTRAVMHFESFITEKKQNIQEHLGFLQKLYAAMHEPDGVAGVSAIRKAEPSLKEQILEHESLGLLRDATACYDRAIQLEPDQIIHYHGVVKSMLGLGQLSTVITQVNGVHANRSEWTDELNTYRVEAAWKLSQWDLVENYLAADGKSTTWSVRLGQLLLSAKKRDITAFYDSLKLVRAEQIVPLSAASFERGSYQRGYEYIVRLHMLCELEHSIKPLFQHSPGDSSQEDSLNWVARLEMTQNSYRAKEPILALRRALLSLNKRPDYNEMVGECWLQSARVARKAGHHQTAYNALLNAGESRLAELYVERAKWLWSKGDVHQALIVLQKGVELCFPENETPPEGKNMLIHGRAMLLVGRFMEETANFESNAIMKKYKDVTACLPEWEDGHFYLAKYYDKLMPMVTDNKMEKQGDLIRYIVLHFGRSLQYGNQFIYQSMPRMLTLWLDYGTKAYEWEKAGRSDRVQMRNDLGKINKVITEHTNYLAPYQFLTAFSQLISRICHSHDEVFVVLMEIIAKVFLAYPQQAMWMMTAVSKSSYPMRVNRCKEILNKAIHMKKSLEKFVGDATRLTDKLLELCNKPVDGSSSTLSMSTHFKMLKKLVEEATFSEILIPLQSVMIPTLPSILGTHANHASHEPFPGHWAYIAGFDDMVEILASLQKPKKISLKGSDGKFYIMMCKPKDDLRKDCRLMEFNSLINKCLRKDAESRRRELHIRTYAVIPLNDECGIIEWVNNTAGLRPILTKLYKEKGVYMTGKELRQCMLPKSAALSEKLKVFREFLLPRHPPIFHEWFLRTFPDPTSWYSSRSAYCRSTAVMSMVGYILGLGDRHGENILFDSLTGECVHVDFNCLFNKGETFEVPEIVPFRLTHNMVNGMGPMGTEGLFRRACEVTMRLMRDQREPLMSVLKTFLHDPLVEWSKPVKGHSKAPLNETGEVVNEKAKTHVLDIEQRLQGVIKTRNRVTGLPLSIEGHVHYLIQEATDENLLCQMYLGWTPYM
Briefly: ATR Inhibition Assay (radioactive-phosphate incorporation). It is filed as biochemical. As to conditions: Ki(app); 5 nM full-length ATR, 10 μM ATP, 800 μM target peptide, 25° C. The procedure, abridged: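 After a 10-min pre-incubation of compound with 5 nM enzyme at 25 °C, ATP was added to start the reaction (final 10 μM [γ-33P]ATP, 800 μM peptide; Tris/HCl pH 7.5, MgCl2, DTT), which ran 24 h. Incorporated 33P was captured on phosphocellulose filters, and Ki(app) was fitted by non-linear regression.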
Regarding `CCC(=O)NC1[C@H]2CN(c3cnc(N)c(-c4nnc(-c5ccc(CNC)cc5)o4)n3)C[C@@H]12` (stereo partly drawn) [Compound I-358, N-[(1S,5R)-3-[5-amino-6-[5-[4-(methylaminomethyl)phenyl]-1,3,4-oxadiazol-2-yl]pyrazin-2-yl]-3-azabicyclo[3.1.0]hexan-6-yl]propanamide], the Ki is 100 to 1000 nM.
Take `CC(C)C(=O)N1CC=C(c2cnc(N)c(-c3nc4ccccc4[nH]3)n2)CC1` [Compound I-293, 1-[4-[5-amino-6-(1H-benzimidazol-2-yl)pyrazin-2-yl]-3,6-dihydro-2H-pyridin-1-yl]-2-methyl-propan-1-one]: the Ki was 100 to 1000 nM.
For `CCS(=O)(=O)N1CCN(c2cnc(N)c(-c3nnc(-c4c(F)cccc4F)o3)n2)CC1` [Compound I-289, 3-[5-(2,6-difluorophenyl)-1,3,4-oxadiazol-2-yl]-5-(4-ethylsulfonylpiperazin-1-yl)pyrazin-2-amine], the Ki lay within 100 to 1000 nM.
Turning to `Cc1ccc2nc(-c3nc(N4CCC(C#N)CC4)cnc3N)[nH]c2c1` [Compound I-34, 1-(5-amino-6-(6-methyl-1H-benzo[d]imidazol-2-yl)pyrazin-2-yl)piperidine-4-carbonitrile], the Ki lay within 1000 to 10000 nM.
The result for `COC(=O)N1CC=C(c2cnc(N)c(-c3nc4ccccc4[nH]3)n2)CC1` [Compound I-244, methyl 4-(5-amino-6-(1H-benzo[d]imidazol-2-yl)pyrazin-2-yl)-5,6-dihydropyridine-1(2H)-carboxylate] reads 100 to 1000 nM; that for `CCS(=O)(=O)N1CCN(c2cnc(N)c(-c3nc4ccccc4n3-c3ccccc3)n2)CC1` [Compound I-308, 5-(4-ethylsulfonylpiperazin-1-yl)-3-(1-phenylbenzimidazol-2-yl)pyrazin-2-amine], 100 to 1000 nM.
For the compound `CN(C)CC(=O)N[C@H]1CCN(c2cnc(N)c(-c3nc4ccccc4[nH]3)n2)C1` [Compound I-184, (S)-N-(1-(5-amino-6-(1H-benzo[d]imidazol-2-yl)pyrazin-2-yl)pyrrolidin-3-yl)-2-(dimethylamino)ethanamide], the Ki is 1000 to 10000 nM.
The same measure for `CCS(=O)(=O)N1CC=C(c2cnc(N)c(-c3nc4cc(C(C)(C)C)ccc4[nH]3)n2)CC1` [Compound I-156, 3-(5-tert-butyl-1H-benzo[d]imidazol-2-yl)-5-(1-(ethylsulfonyl)-1,2,3,6-tetrahydropyridin-4-yl)pyrazin-2-amine]: 1000 to 10000 nM.
Take `CCS(=O)(=O)N1CCN(c2cnc(N)c(-c3nnc(-c4cccc(F)c4)o3)n2)CC1` [Compound I-283, 5-(4-ethylsulfonylpiperazin-1-yl)-3-[5-(3-fluorophenyl)-1,3,4-oxadiazol-2-yl]pyrazin-2-amine]: the Ki was 100 to 1000 nM.
Turning to `COCC(=O)N1CC=C(c2cnc(N)c(-c3nc4ccccc4[nH]3)n2)CC1` [Compound I-138, 1-(4-(5-amino-6-(1H-benzo[d]imidazol-2-yl)pyrazin-2-yl)-5,6-dihydropyridin-1(2H)-yl)-2-methoxyethanone], the Ki is below 100 nM.
On to `CCC(=O)NC1CC=C(c2cnc(N)c(-c3nnc(-c4ccc(CNC)cc4)o3)n2)CC1` (stereo not shown) [Compound I-367, N-(4-(5-Amino-6-(5-(4-((methylamino)methyl)phenyl)-1,3,4-oxadiazol-2-yl)pyrazin-2-yl)cyclohex-3-enyl)propionamide], for which the Ki was below 100 nM.
With `CN1CCC(C(=O)N2CC=C(c3cnc(N)c(-c4nc5ccccc5[nH]4)n3)CC2)CC1` [Compound I-78, (4-(5-amino-6-(1H-benzo[d]imidazol-2-yl)pyrazin-2-yl)-5,6-dihydropyridin-1(2H)-yl)(1-methylpiperidin-4-yl)methanone], the Ki lay in the range of 100 to 1000 nM.
For the compound `Nc1ncc(C2=CCN(C(=O)C3CCC3)CC2)nc1-c1nnc(-c2ccccc2)o1` [Compound I-128, (4-(5-amino-6-(5-phenyl-1,3,4-oxadiazol-2-yl)pyrazin-2-yl)-5,6-dihydropyridin-1(2H)-yl)(cyclobutyl)methanone], the Ki was below 100 nM.
